# Source: patent publication US20180369289A1, “CELL TRANSPLANTATION DEVICE” (THE REGENTS OF THE UNIVERSITY OF CALIFORNIA, priority 2015, published 2018)
# Entries after “also recorded” stand apart in the source; their conditions may differ.
# Tests used:
# [1] = system: islets; assay: Viability of isolated islets under hypoxia with CPO; assay type: cell-based, Sprague Dawley Rats; details: 5 mg/ml or 10 mg/ml in culture media or culture media/PBS mixture; p<0.01 relative to 0% O2 without POGS
# Description: (§1) Islets were obtained from male Sprague Dawley Rats (300-350 g) and cultured in vitro overnight at 37° C., 5% CO2. Supplemented CMRL media (Gibco) incubated at 0% O2 overnight in a hypoxia chamber (XVivo, Biospherix) in order to allow media to deoxygenate. Dissolved oxygen levels were measured in the media using dissolved oxygen meter (Oakton D110).
# (§2) For all viability studies, islets were stained with the following probes to determine viability status based on positive staining: Calcein Blue: live; propidium iodide: dead; and YoPro-1; apoptotic. Islet function was evaluated by looking at glucose stimulated insulin response (GSIR). Islet stimulation index (insulin release at high glucose concentration/insulin release at low glucose concentrations) or SI was calculated after insulin release was quantified using an ELISA.
# About 60% and 70% of islets were alive and viable immediately after isolation and after the 24 hour culture at 20% O2, respectively. However, the proportion of live/viable islets dropped to less than 30% after 24 hour culture at 0% O2. Islets cultured for 24 hours at 0% O2 were rescued by 5 mg/ml or 10 mg/ml CPO (“POGS”) in culture media or in the culture media/PBS mixture (p<0.01 relative to 0% O2 without POGS).
# [2] = Oxygen release from POGS (dissolved oxygen in media, hypoxia chamber); assay type: physicochemical
# Description: as §1
# Phosphate-complexed calcium peroxide (PcCPO) was synthesized by mixing calcium peroxide (CPO) with phosphate-buffered saline at 10 mg/mL and incubating at 37° C. overnight. CP or PcCP was dissolved in a 1.5% UPLVM solution and alginate microcapsules were produced as described above. All oxygen concentration assays were performed in a controlled hypoxic chamber at 37° C. 5% CO2 0% ambient O2 to ensure that the data obtained was not confounded by changes in ambient O2 during the experiment.
# […] No islets were used in this experiment. […] When a 1:1 mixture of culture media and PBS was used, unencapsulated CPO (“PGS/PBS”) caused a rapid rise to 20% dissolved oxy gen which was sustained for at least an hour before gradually falling to 10%.
# [3] = system: islets; assay: Glucose-stimulated insulin release (GSIR) of islets cultured at 0% O2 with CPO; assay type: cell-based, Sprague Dawley Rats; details: added to the culture media; p<0.05
# Description: as §1, §2
# In order to be useful for diabetes treatment, the isolated islets must retain the ability to produce insulin, not just maintain viability. Thus, the insulin release characteristics of islets cultured at 0% O2 in the presence of CPO was investigated by measuring the glucose-stimulated insulin release (GSIR).
# [4] = system: islets; assay: Effect of PFCs on islet viability in hypoxic culture; assay type: cell-based, Sprague Dawley rats; details: for Apoptotic (%) / Dead (%) / Live (%): 0% O2, 24 hours
# Description: as §2
# (§3) Islets from Sprague Dawley rats were isolated, cultured, and assessed as described above. Three concentrations of perfluorodecalin (“PFD”) were added to the culture media: 0.1 ml PFC/ml media (“low PFC”), 0.375 ml PFC/ml media (“medium PFC”), and 0.75 ml PFC/ml media (“high PFC”).
# In a second experiment, islets were plated under 0% or 20% oxygen conditions, as outlined above. Hypoxic islets were supplemented with low, medium, or high PFC levels, charged for 15 minutes in 40% O2 prior to plating. Islet viability was assessed as described above.
# [5] = PFC oxygen content and release in culture media; assay type: physicochemical
# Description: as §3
# A first experiment was performed under 20% and 0% oxygen culture conditions in the absence of islets to characterize the oxygen release rates of various PFC concentrations and under different PFC-oxygen charging conditions. […] The PFCs were charged for 15 minutes in 40% O2 prior to plating.
# [6] = system: macrophages; assay: Macrophage attachment to microcapsules cultured with macrophages; assay type: cell-based; details: incorporated in 2.5% UPLVM microcapsules with porcine islet cells
# Description: Porcine islet cells were encapsulated to 2.5% UPLVM microcapsules using the methods described above. One set of microcapsules incorporated CXCL12/SLF-1 to investigate the locally immunosuppressive effects of this immunorepellant. Microcapsules were then cultured in the presence of macrophages.
# [7] = medium PFC 0.375 ml PFC/ml media
compound,measurement,setting,value
"[Ca+2].[O-][O-] [CPO, calcium peroxide]",Viability of islets cultured 24 hours at 0% O2,[1],rescued
same,Dissolved oxygen content,"[2]; unencapsulated CPO 10 mg/ml in 1:1 culture media and PBS, after gradual fall",10%
same,Dissolved oxygen content,"[2]; unencapsulated CPO 10 mg/ml in 1:1 culture media and PBS, rapid rise, sustained at least an hour",20%
same,Dissolved oxygen content,"[2]; unencapsulated CPO 10 mg/ml in culture media, hypoxia chamber, immediate and sustained",about 40%
same,Effect on reduction of GSIR in islets cultured 24 hrs at 0% O2,[3],significantly reversed this reduction
"FC1(F)C(F)(F)C(F)(F)C2(F)C(F)(F)C(F)(F)C(F)(F)C(F)(F)C2(F)C1(F)F (centres unmarked) [PFC, perfluorodecalin]",Apoptotic (%),[4]; high PFC 0.75 ml PFC/ml media,17.7%
same,Dead (%),[4]; high PFC 0.75 ml PFC/ml media,39.9%
same,Live (%),[4]; high PFC 0.75 ml PFC/ml media,42.3%
same,Apoptotic (%),[4]; low PFC 0.1 ml PFC/ml media,8.73%
same,Dead (%),[4]; low PFC 0.1 ml PFC/ml media,42.1%
same,Live (%),[4]; low PFC 0.1 ml PFC/ml media,49.2%
same,Apoptotic (%),[4]; [7],0.355%
same,Dead (%),[4]; [7],69.1%
same,Live (%),[4]; [7],30.5%
same,Islet viability at 24 hours under hypoxic conditions,[4]; all PFC concentrations,significantly improved islet viability
same,Time for oxygen content to fall from 40% to the ambient 20%,"[5]; charged 15 to 90 minutes in 40% O2, added to culture media at 20% O2",≤ 10 min
same,O2 release profile under hypoxic conditions,[5]; charged 15 minutes in 40% O2,prolonged O2 release profile
CXCL12/SLF-1: immunorepellant incorporated into 2.5% UPLVM microcapsules,Macrophage attachment to microcapsule,[6],no macrophage attachment; also recorded: observed only for the microcapsules lacking CXCL12/SLF-1
Phosphate-complexed calcium peroxide [PcCPO],Dissolved oxygen content versus uncomplexed CPO,"[2]; encapsulated, 5 mg/ml",higher dissolved oxygen content than uncomplexed CPO
same,Effect on reduction of GSIR in islets cultured 24 hrs at 0% O2,[3],significantly reversed this reduction
